Residues, ends and D or L forms follow the SMILES beside them.
Molecular target: Substance-P receptor (Rattus norvegicus, UniProt P14600)
Experiment: Displacement of [125I]Lys3-substance P from rat NK1 receptor expressed in CHO cells
Assay type: cell-based

Substance-P receptor, sequence (P14600 whole entry): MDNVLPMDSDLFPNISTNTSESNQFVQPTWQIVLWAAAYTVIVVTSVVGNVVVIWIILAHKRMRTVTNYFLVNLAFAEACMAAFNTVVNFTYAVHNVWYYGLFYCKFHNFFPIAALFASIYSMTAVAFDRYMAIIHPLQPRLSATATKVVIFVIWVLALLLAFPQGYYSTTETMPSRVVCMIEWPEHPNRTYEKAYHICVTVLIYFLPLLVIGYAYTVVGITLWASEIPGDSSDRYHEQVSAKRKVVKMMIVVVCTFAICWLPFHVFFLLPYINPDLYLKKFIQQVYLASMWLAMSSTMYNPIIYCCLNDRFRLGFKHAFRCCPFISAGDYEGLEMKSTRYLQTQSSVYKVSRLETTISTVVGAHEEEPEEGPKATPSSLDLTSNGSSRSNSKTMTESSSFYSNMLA

SMILES | IC50 (read-out: IC50) [nM] | IC50 (read-out: Log IC50 (converted)) [nM]
CSCC[C@H](NC(=O)[C@H](CC(C)C)NC(=O)CNC(=O)[C@H](Cc1ccccc1)NC(=O)[C@H](Cc1ccccc1)NC(=O)[C@H](CO)NC(=O)[C@H](CCC(N)=O)NC(=O)[C@@H]1CCCN1C(=O)[C@H](CCCCN)NC(=O)[C@@H]1CCCN1C(=O)[C@@H](N)CCCN=C(N)N)C(N)=O | 4.1 | 
CSCC[C@H](NC(=O)[C@H](CC(C)C)NC(=O)CNC(=O)[C@H](Cc1ccccc1)NC(=O)[C@H](Cc1ccccc1)NC(=O)[C@H](CCC(N)=O)NC(=O)[C@H](C)NC(=O)[C@@H]1CCCN1C(=O)[C@H](CCCCN)NC(=O)[C@@H]1CCCN1C(=O)[C@@H](N)CCCNC(=N)N)C(N)=O | 0.7 | 
CSCC[C@H](NC(=O)[C@H](CC(C)C)NC(=O)CNC(=O)[C@H](Cc1ccccc1)NC(=O)[C@H](Cc1ccccc1)NC(=O)[C@H](CCC(N)=O)NC(=O)[C@H](CCC(N)=O)NC(=O)[C@@H]1CCCN1C(=O)[C@H](CCCCN)NC(=O)[C@@H]1CCCN1)C(N)=O (H-PKPQQFFGLM-NH2) | 4.6 | 

Next, values leading:

IC50 (read-out: IC50) [nM] | IC50 (read-out: Log IC50 (converted)) [nM] | SMILES
 | 32.4 | CC[C@H](C)[C@H](NC(=O)[C@H](Cc1ccccc1)NC(=O)[C@H](CO)NC(=O)[C@H](C)NC(=O)[C@@H]1CCCN1C(=O)[C@H](CC(N)=O)NC(=O)[C@@H](N)Cc1cnc[nH]1)C(=O)NCC(=O)N[C@@H](CC(C)C)C(=O)N[C@@H](CCSC)C(N)=O (H-HNPASFIGLM-NH2)
21 |  | CSCC[C@H](NC(=O)[C@H](CC(C)C)NC(=O)CNC(=O)[C@H](Cc1ccccc1)NC(=O)[C@H](Cc1ccccc1)NC(=O)[C@H](CO)NC(=O)[C@H](C)NC(=O)[C@@H]1CCCN1C(=O)[C@H](CCCCN)NC(=O)[C@@H]1CCCN1C(=O)[C@@H](N)CCCN=C(N)N)C(N)=O (H-RPKPASFFGLM-NH2)

Source: ChEMBL document CHEMBL1138366, “Conformational comparisons of a series of tachykinin peptide analogs” (J Med Chem, 2007)
